Results from US11230542B2, “Inhibitors of integrated stress response pathway” (Praxis Biotech LLC, priority 2017, dated 2022).

System: hippocampal slices from transgenic APP/PS1 mice
Experiment: Electrophysiology and long-term potentiation in hippocampal slices
Settings: slices from APP/PS1 mouse, 5 μM, 60 min after theta burst stimulation
Experimental: Hippocampal slices were prepared as described in Ardiles et al., Pannexin 1 regulates bidirectional hippocampal synaptic plasticity in adult mice. Front Cell Neurosci, vol. 8, art. 326 (2014). Six to eleven-month-old WT C57BL/6 or transgenic APP/PS1 mice (Jackson Lab 34829-JAX) were deeply anesthetized with isoflurane and their brains were quickly removed. 5-10 slices (350 μm) from each animal were dissected in ice-cold dissection buffer using a vibratome (Leica VT1200S, Leica Microsystems, Nussloch, Germany). Slices were incubated with 5 μM ISRIB, 5 μM compound 3, 1 μM compound 152, or a vehicle (complete medium containing 0.1% DMSO) 20 min before conditioning stimulation. Synaptic responses were evoked by stimulating the Schaffer collaterals with 0.2 ms pulses delivered through concentric bipolar stimulating electrodes, and recorded extracellularly in the stratum radiatum of the CA1 subfield. Long-term potentiation (LTP) was induced by four-theta burst stimulation (TBS) (10 trains of four pulses at 100 Hz; 5 Hz inter-burst interval) delivered at 0.1 Hz. LTP magnitude based on field excitatory postsynaptic potential (fEPSP) was calculated as the average (normalized to baseline) of the responses recorded 60 min after conditioning stimulation. Similar experiments can be performed using a different test compound in place of ISRIB, compound 3, or compound 152.

O=C(COc1ccc(Cl)cc1)NC1CCC(NC(=O)COc2ccc(Cl)cc2)CC1 (stereo not shown) [ISRIB]
long-term potentiation (LTP), fEPSP: partial LTP recovery
